These results are taken from ChEMBL document CHEMBL3785047, “Biological evaluation of synthetic α,β-unsaturated carbonyl based cyclohexanone derivatives as neuroprotective novel inhibitors of acetylcholinesterase, butyrylcholinesterase and amyloid-β aggregation” (Bioorg Med Chem, 2016).

The subject of data set [1] is PC-12. Description: Neuroprotective activity against amyloid beta (1 to 42)-induced cell death in rat PC12 cells assessed as cell viability at 100 uM preincubated for 24 hrs followed by amyloid beta (1 to 42) addition measured after 1 day by MTT assay relative to control. To be noted: read-out: Activity. The data set is classed as functional.
The nature of data set [2]: Cytotoxicity against rat PC12 cells assessed as reduction in cell viability at 0.01 to 100 uM after 24 hrs by MTT assay. The data set is classed as cell-based. The following applies: pc-12, 24 h. (In general: Formazan colour is commonly taken as a measure of viable cells.)
Data set [3] has as its target Acetylcholinesterase (Electrophorus electricus, UniProt O42275).
Description: Inhibition of electric eel AChE using acetylthiocholine iodide as substrate preincubated for 5 mins followed by substrate addition measured for 10 mins by modified Ellman's method
Data set [4] addresses Cholinesterase (Equus caballus, UniProt P81908).
Description: Inhibition of horse serum BChE using butrylthiocholine iodide as substrate preincubated for 5 mins followed by substrate addition measured for 10 mins by modified Ellman's method
For data set [5], the target named is Amyloid-beta precursor protein (Homo sapiens) (UniProt P05067). Description: Inhibition of amyloid beta (1-42) (unknown origin) self-induced aggregation after 2 days by thioflavin T fluorometric assay.
Chain of Amyloid-beta precursor protein (Homo sapiens) (P05067 whole entry): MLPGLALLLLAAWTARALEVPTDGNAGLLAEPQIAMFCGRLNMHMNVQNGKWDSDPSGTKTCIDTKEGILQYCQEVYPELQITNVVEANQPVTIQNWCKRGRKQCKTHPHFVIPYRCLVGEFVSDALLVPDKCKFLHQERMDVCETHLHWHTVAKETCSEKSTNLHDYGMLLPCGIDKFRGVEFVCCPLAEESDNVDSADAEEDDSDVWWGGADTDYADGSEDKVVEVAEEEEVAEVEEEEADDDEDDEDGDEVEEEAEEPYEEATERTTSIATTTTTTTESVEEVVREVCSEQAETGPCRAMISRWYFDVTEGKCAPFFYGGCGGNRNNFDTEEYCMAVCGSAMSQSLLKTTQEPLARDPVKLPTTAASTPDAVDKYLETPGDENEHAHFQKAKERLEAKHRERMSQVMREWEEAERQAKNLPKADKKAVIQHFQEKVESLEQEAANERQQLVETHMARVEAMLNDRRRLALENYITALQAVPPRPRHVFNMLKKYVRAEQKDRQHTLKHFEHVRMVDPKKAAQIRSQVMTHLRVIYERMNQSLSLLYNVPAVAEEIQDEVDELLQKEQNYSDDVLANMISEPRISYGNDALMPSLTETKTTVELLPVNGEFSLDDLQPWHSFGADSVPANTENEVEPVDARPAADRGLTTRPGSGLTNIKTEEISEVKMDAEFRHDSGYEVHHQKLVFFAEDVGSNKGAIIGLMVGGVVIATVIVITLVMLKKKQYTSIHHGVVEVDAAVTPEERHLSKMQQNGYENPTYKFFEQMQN

The structures appear in SMILES notation.

Chain of Cholinesterase (P81908 whole entry): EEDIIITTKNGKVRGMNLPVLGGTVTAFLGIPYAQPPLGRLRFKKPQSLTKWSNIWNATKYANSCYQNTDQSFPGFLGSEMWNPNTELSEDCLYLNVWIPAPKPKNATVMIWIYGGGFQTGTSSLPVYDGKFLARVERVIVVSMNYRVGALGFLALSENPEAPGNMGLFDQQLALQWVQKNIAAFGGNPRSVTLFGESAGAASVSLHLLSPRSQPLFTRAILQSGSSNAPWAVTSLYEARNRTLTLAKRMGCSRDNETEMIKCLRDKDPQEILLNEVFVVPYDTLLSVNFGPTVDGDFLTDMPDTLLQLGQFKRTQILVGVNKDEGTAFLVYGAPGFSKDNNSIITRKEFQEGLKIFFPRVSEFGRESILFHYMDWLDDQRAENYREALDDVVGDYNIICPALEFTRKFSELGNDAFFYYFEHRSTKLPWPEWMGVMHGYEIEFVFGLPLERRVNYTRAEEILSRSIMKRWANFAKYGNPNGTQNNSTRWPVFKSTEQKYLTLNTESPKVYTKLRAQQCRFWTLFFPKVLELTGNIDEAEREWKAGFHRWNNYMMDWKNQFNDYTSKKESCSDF
Chain of Acetylcholinesterase (O42275 whole entry): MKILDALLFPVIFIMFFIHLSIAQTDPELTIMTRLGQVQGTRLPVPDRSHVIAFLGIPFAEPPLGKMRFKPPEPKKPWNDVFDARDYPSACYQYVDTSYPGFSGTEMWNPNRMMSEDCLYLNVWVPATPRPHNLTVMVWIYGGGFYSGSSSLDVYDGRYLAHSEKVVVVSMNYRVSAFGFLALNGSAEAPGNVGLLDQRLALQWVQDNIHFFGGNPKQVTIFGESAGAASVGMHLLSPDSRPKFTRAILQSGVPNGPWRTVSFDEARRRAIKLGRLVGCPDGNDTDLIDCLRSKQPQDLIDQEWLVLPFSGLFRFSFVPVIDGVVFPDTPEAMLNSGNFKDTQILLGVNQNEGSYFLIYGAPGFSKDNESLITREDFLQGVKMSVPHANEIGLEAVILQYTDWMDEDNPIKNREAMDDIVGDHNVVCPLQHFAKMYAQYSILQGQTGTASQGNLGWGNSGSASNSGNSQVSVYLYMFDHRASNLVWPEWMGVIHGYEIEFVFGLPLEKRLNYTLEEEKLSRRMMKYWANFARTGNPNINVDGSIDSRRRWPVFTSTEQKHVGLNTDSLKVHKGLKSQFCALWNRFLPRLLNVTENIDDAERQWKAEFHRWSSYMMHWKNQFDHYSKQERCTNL

In general, IC50 refers to the concentration at which inhibition is half-maximal. Lower therefore signals greater potency in that assay. For `COc1ccc(/C=C2\CN(Cc3ccccc3)C/C(=C\c3ccc(OC)c(OC)c3Cl)C2=O)c(Cl)c1OC`, the viability at 100 µM in data set [1] was found to be 58%. Further, the Activity entry in data set [2] is reported as “Non-toxic”. Moreover, the concentration for half-maximal inhibition (IC50) in data set [3] and in data set [4] was more than 100 µM each time.
Regarding `COc1cccc(/C=C2\CN(C)C/C(=C\c3cccc(OC)c3Cl)C2=O)c1Cl`, the viability at 100 µM in data set [1] was not above 92%. Also, the Activity entry in data set [2] is “Non-toxic”. The results for the IC50 in data set [3] and in data set [4] were 1.2 µM and more than 100 µM, respectively.
As for `COc1ccc(/C=C2\CC(C(C)C)C/C(=C\c3ccc(OC)c(OC)c3Cl)C2=O)c(Cl)c1OC` (centres undefined), in data set [1], the viability at 100 µM is 58%. For the same molecule, the Activity entry in data set [2] is “Non-toxic”. The IC50 is 0.92 µM in data set [3] and more than 100 µM in data set [4]. In addition, in data set [5], the inhibition result is “Dose-dependent effect”.
For `COc1cc(/C=C2\CCC/C(=C\c3cc(OC)c(OC)c(OC)c3Br)C2=O)c(Br)c(OC)c1OC`, in data set [1], the viability at 100 µM is 58%. In addition, the Activity result in data set [2] was “Non-toxic”. Besides, the IC50 in data set [3] is 12.6 µM; in data set [4], more than 100 µM. Besides, in data set [5], the inhibition entry is “Dose-dependent effect”.
Consider `COc1cccc(/C=C2\CNC/C(=C\c3cccc(OC)c3Cl)C2=O)c1Cl`, for which, in data set [1], the viability at 100 µM was determined as 58%. The Activity result in data set [2] is given as “Non-toxic”. The IC50 in data set [3] was 5.2 µM; in data set [4] it was more than 100 µM.
Take `COc1cccc(/C=C2\CN(Cc3ccccc3)C/C(=C\c3cccc(OC)c3Cl)C2=O)c1Cl`: in data set [1], the viability at 100 µM stood at 58%. In addition, in data set [2], the Activity entry is given as “Non-toxic”. For the same molecule, the IC50 in data set [3] and in data set [4] was more than 100 µM each time.
As for `COc1cc(/C=C2\CN(C)C/C(=C\c3cc(OC)c(OC)c(OC)c3Br)C2=O)c(Br)c(OC)c1OC`, the viability at 100 µM in data set [1] was not above 92%. Moreover, the Activity result in data set [2] is given as “Non-toxic”. The IC50 was 0.037 µM in data set [3] and 10.5 µM in data set [4]. For the same molecule, the inhibition entry in data set [5] is “Dose-dependent effect”.
In the case of `COc1cc(/C=C2\COC/C(=C\c3cc(OC)c(OC)c(OC)c3Br)C2=O)c(Br)c(OC)c1OC`, in data set [1], the viability at 100 µM was not above 92%. In data set [2], the Activity entry is “Non-toxic”. Moreover, the IC50 in data set [3] is 1.5 µM; in data set [4] it was more than 100 µM.
In the case of `COc1ccc(/C=C2\CN(C)C/C(=C\c3ccc(OC)c(OC)c3Cl)C2=O)c(Cl)c1OC`, the viability at 100 µM in data set [1] is not above 92%. The Activity entry in data set [2] is given as “Non-toxic”. The IC50 in data set [3] was determined as 0.63 µM; in data set [4], 2.9 µM. Besides, the inhibition entry in data set [5] was “Dose-dependent effect”.
As to `COc1cc(/C=C2\CN(Cc3ccccc3)C/C(=C\c3cc(OC)c(OC)c(OC)c3Br)C2=O)c(Br)c(OC)c1OC`, the viability at 100 µM in data set [1] is 58%. Also, the Activity result in data set [2] is “Non-toxic”. In addition, the IC50 in data set [3] and in data set [4] was more than 100 µM each time.
Consider `COc1cc(/C=C2\CC(C(C)C)C/C(=C\c3cc(OC)c(OC)c(OC)c3Br)C2=O)c(Br)c(OC)c1OC` (centres undefined), for which the viability at 100 µM in data set [1] was found to be 58%. Moreover, in data set [2], the Activity result was “Non-toxic”. Moreover, the IC50 in data set [3] is 0.51 µM; in data set [4] it was more than 100 µM. For the same molecule, the inhibition result in data set [5] is “Dose-dependent effect”.
In the case of `COc1cc(/C=C2\CNC/C(=C\c3cc(OC)c(OC)c(OC)c3Br)C2=O)c(Br)c(OC)c1OC`, the viability at 100 µM in data set [1] was not above 92%. Moreover, the Activity entry in data set [2] is reported as “Non-toxic”. Further, the IC50 in data set [3] is 1.9 µM; in data set [4], 68.8 µM.
As to `COc1cccc(/C=C2\CC(C)C/C(=C\c3cccc(OC)c3Cl)C2=O)c1Cl` (centres undefined), in data set [1], the viability at 100 µM worked out at 58%. The Activity result in data set [2] is “Non-toxic”. Further, the values for the IC50 in data set [3] and in data set [4] were 5.6 µM and 49.7 µM, respectively.
On to `COc1cc(/C=C2\CC(C)C/C(=C\c3cc(OC)c(OC)c(OC)c3Br)C2=O)c(Br)c(OC)c1OC` (centres undefined), for which, in data set [1], the viability at 100 µM is not above 92%. Also, the Activity result in data set [2] is reported as “Non-toxic”. Besides, the results for the IC50 in data set [3] and in data set [4] were 1.5 µM and 19.5 µM, respectively.
For `COc1cccc(/C=C2\CCC/C(=C\c3cccc(OC)c3Cl)C2=O)c1Cl`, the viability at 100 µM in data set [1] was found to be 58%. Also, the Activity result in data set [2] is listed as “Non-toxic”. Besides, the IC50 in data set [3] is 22.4 µM; in data set [4], more than 100 µM.
On the same counts, the results for `COc1cccc(/C=C2\CC(C(C)C)C/C(=C\c3cccc(OC)c3Cl)C2=O)c1Cl` (centres undefined) are 58%, “Non-toxic”, 1.3 µM and more than 100 µM.
As for `COc1ccc(/C=C2\CC(C)C/C(=C\c3ccc(OC)c(OC)c3Cl)C2=O)c(Cl)c1OC` (centres undefined), in data set [1], the viability at 100 µM was found to be 58%. Moreover, the Activity result in data set [2] was “Non-toxic”. Moreover, the IC50 in data set [3] came out at 2.1 µM; in data set [4] it was 11.2 µM.
Consider `COc1cccc(/C=C2\COC/C(=C\c3cccc(OC)c3Cl)C2=O)c1Cl`, for which, in data set [1], the viability at 100 µM turned out to be 58%. The Activity entry in data set [2] is “Non-toxic”. In addition, the IC50 in data set [3] is 9.5 µM; in data set [4], more than 100 µM.
The matching figures for `COc1ccc(/C=C2\CNC/C(=C\c3ccc(OC)c(OC)c3Cl)C2=O)c(Cl)c1OC`: 58%, “Non-toxic”, 3.7 µM and 16.7 µM.
The matching figures for `COc1ccc(/C=C2\CCC/C(=C\c3ccc(OC)c(OC)c3Cl)C2=O)c(Cl)c1OC`: 58%, “Non-toxic”, 17.5 µM and more than 100 µM.
For the molecule `COc1ccc(/C=C2\COC/C(=C\c3ccc(OC)c(OC)c3Cl)C2=O)c(Cl)c1OC`, in data set [1], the viability at 100 µM is 58%. The Activity entry in data set [2] is reported as “Non-toxic”. Also, the IC50 in data set [3] is 7.2 µM; in data set [4] it was more than 100 µM.
